Reference: patent EP0117260A1, “4-Aminobutyric acid derivatives, a process for the preparation thereof and a pharmaceutical composition containing said derivatives” (priority 1983, dated 1984)

Assays:
[1] = Maximum tolerance (death observed 48 hours after administration); conditions: mouse, in vivo; mice; dose just smaller than the dose inducing death, observed 48 hours after the administration
[2] = Level of hopanthenic acid in blood plasma after oral administration (GC-MS); type: in vivo, SD-male rats; conditions: rat, 389.4 umol/kg, 389.4 µmole/kg, rats, n=4, read-out: Level of hopanthenic acid in the blood plasma (average ± S.D.)
Method: SD-male rats, weighing about 200 g, 7 weeks age, having been fasted overnight (one group: 4 rats) were used. To each rat was orally administered a suspension (2 ml) of a test compound in a 0.5 % carboxymethyl cellulose solution with a stomach sonde (dose of test compound: […], corresponding to 100 mg/kg of calcium hopanthenate).
One or two hours after the aministration, the rats were killed by cutting whole carotid arteries, and the blood was collected. The blood of each rat was centrifuged (2,800 r.p.m., 15 minutes) to separate blood plasma. Concentration of hopanthenic acid in the blood plasma (0.1 ml) was measured by gas chromatography and mass spectrometry.

[3] = Level of hopanthenic acid in the cerebrum after oral administration (GC-MS); type: in vivo, SD-male rats; conditions: rat, 389.4 umol/kg, 389.4 µmole/kg, rats, n=4, read-out: Level of hopanthenic acid in the cerebrum (average ± S.D.)
Method: SD-male rats, weighing about 200 g, 7 weeks age, having been fasted overnight (one group: 4 rats) were used. To each rat was orally administered a suspension (2 ml) of a test compound in a 0.5 % carboxymethyl cellulose solution with a stomach sonde (dose of test compound: 389.4 #mole/kg, corresponding to 100 mg/kg of calcium hopanthenate). Two or three hours after the administration, the cerebrum was taken out and washed with physiological saline solution. To the cerebrum was added 9 times volume of water, and the mixture was homogenated with a homogenizer for one minute under ice-cooling and then centrifuged at 10,000 r.p.m. at 4°C for one hour. Concentration of hopanthenic acid in the supernatant (1 ml, corresponding to 0.1 g of the cerebrum) was measured by gas chromatography and mass spectrometry. The test compounds were the same as used in Experiment 1.

[4] = Two hours after the administration

| concentration at 1 h ([2]; One hour after the administration) | concentration at 2 h [2, 4] | concentration at 3 h ([3]; Three hours after the administration) | concentration at 2 h [3, 4] | SMILES | MTD at 48 h [1] |
| --- | --- | --- | --- | --- | --- |
|  |  |  |  | CC(C)C(=O)OCC(C)(C)[C@@H](O)C(=O)NCCCC(=O)O | > 2000 mg/kg |
| 19400 ± 1900 ng/mL | 14200 ± 1600 ng/mL | 370 ± 70 ng/g | 700 ± 110 ng/g | CC(C)(CO)[C@@H](O)C(=O)NCCCC(=O)O [Control, Calcium D-4-[N-(2,4-dihydroxy-3,3-dimethyl-n-butyryl)amino]-n-butyrate] |  |
|  |  |  |  | CC(C)CC(=O)OCC(C)(C)[C@@H](O)C(=O)NCCCC(=O)O [Compound No. 2, D-4-[N-(4-Isovaleryloxy-3,3-dimethyl-2-hydroxy-n-butyryl)-amino]-n-butyric acid] | > 2000 mg/kg |
